Data: patent publication US9492471B2, “Methods of treating a disease or disorder associated with Bruton'S Tyrosine Kinase” (Celgene Avilomics Research, Inc., priority 2013, dated 2016)
Read-outs that look alike come from different tables or passages of the source.

Key:
Assay in all cases: HotSpot kinase profiling
Assay type in all cases: biochemical
ALK = target: T1, ALK (Homo sapiens, UniProt Q9UM73)
T1 construct: purchased Reaction Biology Corp
Procedure, shortened: (§1)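 P81 filtration radiometric readout; 2 h incubation at room temperature; 0.1% phosphoric acid wash; DMSO negative control; % inhibition, mean of replicate runs.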

CSK = target: T2, CSK (Homo sapiens, UniProt P41240)
T2 construct: purchased Reaction Biology Corp
T2 sequence (P41240 whole entry): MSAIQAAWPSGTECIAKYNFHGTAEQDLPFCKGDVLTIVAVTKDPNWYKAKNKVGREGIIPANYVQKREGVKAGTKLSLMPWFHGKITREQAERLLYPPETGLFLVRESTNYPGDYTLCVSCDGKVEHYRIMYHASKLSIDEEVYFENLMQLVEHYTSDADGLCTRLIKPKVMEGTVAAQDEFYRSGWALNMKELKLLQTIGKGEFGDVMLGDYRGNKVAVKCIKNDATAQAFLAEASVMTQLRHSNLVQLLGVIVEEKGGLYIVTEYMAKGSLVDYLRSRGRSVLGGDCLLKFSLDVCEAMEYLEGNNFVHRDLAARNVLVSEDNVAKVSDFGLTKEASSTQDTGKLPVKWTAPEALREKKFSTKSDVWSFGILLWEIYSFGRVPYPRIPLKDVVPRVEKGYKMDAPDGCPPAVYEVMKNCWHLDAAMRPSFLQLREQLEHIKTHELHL
Procedure, shortened: as §1

GSK3b = target: T3, GSK3b (Homo sapiens, UniProt P49841)
T3 construct: purchased Reaction Biology Corp
T3 sequence (P49841 whole entry): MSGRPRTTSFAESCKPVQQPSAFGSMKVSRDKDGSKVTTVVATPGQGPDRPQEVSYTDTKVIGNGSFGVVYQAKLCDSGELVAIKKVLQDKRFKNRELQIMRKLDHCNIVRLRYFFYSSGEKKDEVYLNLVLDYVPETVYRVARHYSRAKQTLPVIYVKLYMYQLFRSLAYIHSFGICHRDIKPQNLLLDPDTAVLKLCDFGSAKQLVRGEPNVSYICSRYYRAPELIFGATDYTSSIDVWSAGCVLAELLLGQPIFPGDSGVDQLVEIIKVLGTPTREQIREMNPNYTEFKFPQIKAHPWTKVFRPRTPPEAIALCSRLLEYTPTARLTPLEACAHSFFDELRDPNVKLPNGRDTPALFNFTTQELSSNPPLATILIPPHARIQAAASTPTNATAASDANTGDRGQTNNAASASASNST
Procedure, shortened: as §1

KHS/MAP4K5 = target: T4, KHS/MAP4K5 (Homo sapiens, UniProt Q9Y4K4)
T4 construct: purchased Reaction Biology Corp
T4 sequence (Q9Y4K4 whole entry): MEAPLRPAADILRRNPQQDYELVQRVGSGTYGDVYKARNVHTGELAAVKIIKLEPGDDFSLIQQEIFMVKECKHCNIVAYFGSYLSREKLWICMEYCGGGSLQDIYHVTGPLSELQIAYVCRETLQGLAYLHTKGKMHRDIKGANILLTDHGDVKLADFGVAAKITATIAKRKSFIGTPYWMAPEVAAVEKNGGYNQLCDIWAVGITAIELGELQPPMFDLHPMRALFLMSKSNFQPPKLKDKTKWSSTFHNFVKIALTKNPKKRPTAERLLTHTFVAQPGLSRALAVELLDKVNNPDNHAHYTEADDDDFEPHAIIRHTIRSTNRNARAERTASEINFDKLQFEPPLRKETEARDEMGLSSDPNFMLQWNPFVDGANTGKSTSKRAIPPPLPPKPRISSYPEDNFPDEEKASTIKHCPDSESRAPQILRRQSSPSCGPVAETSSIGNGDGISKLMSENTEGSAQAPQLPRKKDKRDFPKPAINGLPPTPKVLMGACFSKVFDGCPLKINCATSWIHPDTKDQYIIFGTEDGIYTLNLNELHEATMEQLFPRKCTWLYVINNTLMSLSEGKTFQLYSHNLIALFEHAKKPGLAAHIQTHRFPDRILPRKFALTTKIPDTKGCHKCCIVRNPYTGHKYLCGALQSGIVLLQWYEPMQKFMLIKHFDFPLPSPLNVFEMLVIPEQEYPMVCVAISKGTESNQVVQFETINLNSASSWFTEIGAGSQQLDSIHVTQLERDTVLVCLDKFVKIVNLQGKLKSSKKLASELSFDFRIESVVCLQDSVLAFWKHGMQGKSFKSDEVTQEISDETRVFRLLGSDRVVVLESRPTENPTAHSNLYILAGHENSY
Procedure, shortened: as §1

MYO3b = target: T5, MYO3b (Homo sapiens, UniProt Q8WXR4)
T5 construct: purchased Reaction Biology Corp
T5 sequence (Q8WXR4 1-1341): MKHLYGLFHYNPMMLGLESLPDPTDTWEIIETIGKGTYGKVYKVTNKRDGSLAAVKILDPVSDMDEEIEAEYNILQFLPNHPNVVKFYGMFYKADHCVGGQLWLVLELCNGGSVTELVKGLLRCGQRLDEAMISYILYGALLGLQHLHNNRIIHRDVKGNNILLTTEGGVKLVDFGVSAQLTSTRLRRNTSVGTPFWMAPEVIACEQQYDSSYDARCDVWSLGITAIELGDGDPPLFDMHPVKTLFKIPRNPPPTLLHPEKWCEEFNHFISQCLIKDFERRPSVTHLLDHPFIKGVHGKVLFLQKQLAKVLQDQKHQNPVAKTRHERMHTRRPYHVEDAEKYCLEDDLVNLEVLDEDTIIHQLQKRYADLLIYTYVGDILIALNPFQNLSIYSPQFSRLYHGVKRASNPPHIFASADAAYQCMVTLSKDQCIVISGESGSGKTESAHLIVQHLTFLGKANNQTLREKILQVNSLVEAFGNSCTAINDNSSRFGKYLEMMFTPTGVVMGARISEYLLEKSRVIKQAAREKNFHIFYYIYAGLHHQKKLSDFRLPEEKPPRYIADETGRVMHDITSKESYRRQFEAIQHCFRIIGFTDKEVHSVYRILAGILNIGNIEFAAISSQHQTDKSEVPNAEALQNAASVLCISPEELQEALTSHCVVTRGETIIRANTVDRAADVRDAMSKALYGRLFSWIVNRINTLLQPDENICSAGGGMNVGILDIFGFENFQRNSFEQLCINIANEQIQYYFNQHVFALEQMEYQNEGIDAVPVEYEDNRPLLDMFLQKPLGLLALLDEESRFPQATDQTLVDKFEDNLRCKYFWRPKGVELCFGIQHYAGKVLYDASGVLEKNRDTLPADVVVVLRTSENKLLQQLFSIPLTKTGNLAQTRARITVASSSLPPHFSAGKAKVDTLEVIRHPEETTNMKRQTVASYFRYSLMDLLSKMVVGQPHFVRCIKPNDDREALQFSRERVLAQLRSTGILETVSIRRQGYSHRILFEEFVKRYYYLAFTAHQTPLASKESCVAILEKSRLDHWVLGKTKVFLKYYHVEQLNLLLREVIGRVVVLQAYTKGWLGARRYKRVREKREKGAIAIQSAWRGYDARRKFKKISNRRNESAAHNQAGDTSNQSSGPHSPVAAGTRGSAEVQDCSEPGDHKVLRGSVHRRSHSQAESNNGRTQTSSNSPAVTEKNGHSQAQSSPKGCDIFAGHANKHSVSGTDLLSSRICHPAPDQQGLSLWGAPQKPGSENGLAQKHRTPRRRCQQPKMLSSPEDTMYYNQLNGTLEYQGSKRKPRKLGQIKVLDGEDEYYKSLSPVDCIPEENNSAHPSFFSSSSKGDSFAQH
Procedure, shortened: as §1

P38g = target: T6, P38g (Homo sapiens, UniProt P53778)
T6 construct: purchased Reaction Biology Corp
T6 sequence (P53778 1-367): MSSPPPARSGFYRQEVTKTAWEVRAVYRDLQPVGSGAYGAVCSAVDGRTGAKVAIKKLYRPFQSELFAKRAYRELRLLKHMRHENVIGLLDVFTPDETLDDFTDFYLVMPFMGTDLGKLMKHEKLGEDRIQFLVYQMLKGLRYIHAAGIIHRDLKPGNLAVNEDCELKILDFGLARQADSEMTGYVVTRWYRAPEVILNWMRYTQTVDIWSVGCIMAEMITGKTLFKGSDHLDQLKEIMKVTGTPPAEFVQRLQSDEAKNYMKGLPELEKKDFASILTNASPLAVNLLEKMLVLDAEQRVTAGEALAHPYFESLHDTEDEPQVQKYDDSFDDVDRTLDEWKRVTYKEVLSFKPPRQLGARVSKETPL
Procedure, shortened: as §1

RSK2 = target: T7, RSK2 (Homo sapiens, UniProt P51812)
T7 construct: purchased Reaction Biology Corp
Procedure, shortened: as §1

RSK3 = target: T8, RSK3 (Homo sapiens, UniProt Q15349)
T8 construct: purchased Reaction Biology Corp
T8 sequence (Q15349 whole entry): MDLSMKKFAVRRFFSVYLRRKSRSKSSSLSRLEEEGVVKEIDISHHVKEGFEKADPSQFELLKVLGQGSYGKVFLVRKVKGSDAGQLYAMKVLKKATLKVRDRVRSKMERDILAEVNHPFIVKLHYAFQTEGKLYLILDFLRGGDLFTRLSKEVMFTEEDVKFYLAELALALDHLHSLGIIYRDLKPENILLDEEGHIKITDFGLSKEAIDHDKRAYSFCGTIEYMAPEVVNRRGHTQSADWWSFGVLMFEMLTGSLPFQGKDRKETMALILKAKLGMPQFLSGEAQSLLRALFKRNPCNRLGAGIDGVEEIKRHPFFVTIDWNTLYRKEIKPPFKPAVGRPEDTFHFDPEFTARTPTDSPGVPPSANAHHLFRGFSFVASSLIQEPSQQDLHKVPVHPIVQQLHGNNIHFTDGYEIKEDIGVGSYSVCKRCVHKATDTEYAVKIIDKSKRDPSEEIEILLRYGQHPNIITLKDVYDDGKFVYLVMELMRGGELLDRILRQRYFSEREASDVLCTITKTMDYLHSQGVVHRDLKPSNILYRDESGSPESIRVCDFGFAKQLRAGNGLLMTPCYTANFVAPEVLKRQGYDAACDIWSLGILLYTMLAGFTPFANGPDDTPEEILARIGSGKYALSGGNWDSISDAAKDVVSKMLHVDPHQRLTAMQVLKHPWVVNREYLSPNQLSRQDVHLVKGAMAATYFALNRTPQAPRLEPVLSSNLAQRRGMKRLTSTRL
Procedure, shortened: as §1

TRKC = target: T9, TRKC (Homo sapiens, UniProt Q16288)
T9 construct: purchased Reaction Biology Corp
T9 sequence (Q16288 32-839): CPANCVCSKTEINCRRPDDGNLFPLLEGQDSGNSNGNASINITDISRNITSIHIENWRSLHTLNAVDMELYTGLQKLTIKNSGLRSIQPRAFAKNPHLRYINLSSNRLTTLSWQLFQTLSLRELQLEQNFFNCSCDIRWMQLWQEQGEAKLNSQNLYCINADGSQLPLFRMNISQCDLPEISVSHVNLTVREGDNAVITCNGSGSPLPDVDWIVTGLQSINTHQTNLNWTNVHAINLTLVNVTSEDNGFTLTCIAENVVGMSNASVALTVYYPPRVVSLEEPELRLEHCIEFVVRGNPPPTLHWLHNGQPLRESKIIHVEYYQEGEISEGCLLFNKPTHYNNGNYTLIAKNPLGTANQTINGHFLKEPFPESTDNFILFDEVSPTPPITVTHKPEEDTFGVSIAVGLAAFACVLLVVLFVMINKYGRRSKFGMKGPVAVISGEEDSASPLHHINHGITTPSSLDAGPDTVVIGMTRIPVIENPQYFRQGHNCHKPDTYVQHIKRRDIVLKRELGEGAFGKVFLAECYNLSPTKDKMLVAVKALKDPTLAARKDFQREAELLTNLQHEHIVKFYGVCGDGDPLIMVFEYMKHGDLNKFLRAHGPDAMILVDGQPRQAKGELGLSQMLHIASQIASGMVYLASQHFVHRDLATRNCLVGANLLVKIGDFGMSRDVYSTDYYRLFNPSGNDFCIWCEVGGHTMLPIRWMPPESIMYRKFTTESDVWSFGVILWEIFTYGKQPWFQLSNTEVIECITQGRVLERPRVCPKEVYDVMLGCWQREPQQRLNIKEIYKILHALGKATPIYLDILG
Procedure, shortened: as §1

[1] = read-out: % Enzyme Activity (relative to DMSO controls) Run 1
[2] = read-out: % Enzyme Activity (relative to DMSO controls) Run 2

T1 sequence (Q9UM73 19-1620): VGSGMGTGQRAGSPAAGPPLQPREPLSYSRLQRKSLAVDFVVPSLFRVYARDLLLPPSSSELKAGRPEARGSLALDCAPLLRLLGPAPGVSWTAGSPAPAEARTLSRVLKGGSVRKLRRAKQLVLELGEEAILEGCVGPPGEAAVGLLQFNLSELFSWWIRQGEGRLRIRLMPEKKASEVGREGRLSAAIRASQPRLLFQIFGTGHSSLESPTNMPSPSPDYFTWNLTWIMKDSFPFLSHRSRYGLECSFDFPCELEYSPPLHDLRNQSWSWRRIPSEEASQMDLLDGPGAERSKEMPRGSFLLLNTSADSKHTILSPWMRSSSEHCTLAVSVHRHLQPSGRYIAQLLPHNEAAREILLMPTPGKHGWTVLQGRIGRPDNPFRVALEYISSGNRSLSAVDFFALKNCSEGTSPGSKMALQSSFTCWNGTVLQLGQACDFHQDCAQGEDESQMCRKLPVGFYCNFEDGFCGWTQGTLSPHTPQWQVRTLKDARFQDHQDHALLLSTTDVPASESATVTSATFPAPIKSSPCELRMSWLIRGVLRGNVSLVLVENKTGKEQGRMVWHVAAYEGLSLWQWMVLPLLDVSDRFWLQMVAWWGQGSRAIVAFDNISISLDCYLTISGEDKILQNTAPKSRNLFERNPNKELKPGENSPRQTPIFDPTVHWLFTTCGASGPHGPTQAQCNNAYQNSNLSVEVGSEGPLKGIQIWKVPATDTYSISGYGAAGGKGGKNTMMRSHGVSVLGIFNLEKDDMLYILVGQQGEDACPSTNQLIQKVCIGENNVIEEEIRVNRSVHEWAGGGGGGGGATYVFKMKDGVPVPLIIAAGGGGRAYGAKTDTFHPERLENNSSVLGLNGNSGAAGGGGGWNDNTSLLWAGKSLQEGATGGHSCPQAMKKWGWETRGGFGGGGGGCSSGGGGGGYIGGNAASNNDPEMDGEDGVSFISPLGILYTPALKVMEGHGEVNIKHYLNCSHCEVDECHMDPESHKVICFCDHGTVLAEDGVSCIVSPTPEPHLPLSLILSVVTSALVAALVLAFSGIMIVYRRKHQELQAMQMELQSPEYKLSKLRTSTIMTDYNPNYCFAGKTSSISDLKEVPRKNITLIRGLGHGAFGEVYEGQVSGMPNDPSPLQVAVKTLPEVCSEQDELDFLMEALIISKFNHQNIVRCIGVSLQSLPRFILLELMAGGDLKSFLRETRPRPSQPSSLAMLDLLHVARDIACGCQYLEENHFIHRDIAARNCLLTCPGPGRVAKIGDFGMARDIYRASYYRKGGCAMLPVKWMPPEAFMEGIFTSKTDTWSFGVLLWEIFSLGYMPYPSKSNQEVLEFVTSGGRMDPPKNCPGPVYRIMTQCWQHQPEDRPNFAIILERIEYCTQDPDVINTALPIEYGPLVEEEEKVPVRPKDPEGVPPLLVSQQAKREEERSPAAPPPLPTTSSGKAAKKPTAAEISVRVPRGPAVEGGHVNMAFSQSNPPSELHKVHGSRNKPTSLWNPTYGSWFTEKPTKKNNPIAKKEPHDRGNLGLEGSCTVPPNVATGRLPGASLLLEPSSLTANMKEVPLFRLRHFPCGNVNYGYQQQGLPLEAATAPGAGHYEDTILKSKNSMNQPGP

C=CC(=O)Nc1cccc(Nc2nc(Nc3ccc(OCCOC)c(F)c3)ncc2F)c1 [Compound 2]
inhibition at 3 µM (ALK): 16.9%
remaining activity at 3 µM (ALK; [1]): 82.5%
remaining activity at 3 µM (ALK; [2]): 83.6%
inhibition at 3 µM (CSK): 18.2%
remaining activity at 3 µM (CSK; [1]): 81.7%
remaining activity at 3 µM (CSK; [2]): 81.8%
inhibition at 3 µM (GSK3b): -22.2%
remaining activity at 3 µM (GSK3b; [1]): 122%
remaining activity at 3 µM (GSK3b; [2]): 123%
inhibition at 3 µM (KHS/MAP4K5): 7.15%
remaining activity at 3 µM (KHS/MAP4K5; [1]): 94.9%
remaining activity at 3 µM (KHS/MAP4K5; [2]): 90.8%
inhibition at 3 µM (MYO3b): -2.59%
remaining activity at 3 µM (MYO3b; [1]): 104%
remaining activity at 3 µM (MYO3b; [2]): 102%
inhibition at 3 µM (P38g): -5.53%
remaining activity at 3 µM (P38g; [1]): 105%
remaining activity at 3 µM (P38g; [2]): 106%
inhibition at 3 µM (RSK2): 16.6%
remaining activity at 3 µM (RSK2; [1]): 82.6%
remaining activity at 3 µM (RSK2; [2]): 84.3%
inhibition at 3 µM (RSK3): 14.5%
remaining activity at 3 µM (RSK3; [1]): 85.8%
remaining activity at 3 µM (RSK3; [2]): 85.2%
inhibition at 3 µM (TRKC): 66.3%
remaining activity at 3 µM (TRKC; [1]): 35.1%
remaining activity at 3 µM (TRKC; [2]): 32.3%
